Columns and labels:
Conditions in all cases: EDTA at concentrations of 0.1-40 wt. % by volume
Pseudomonas aeruginosa = tested on: Pseudomonas aeruginosa
[1] = tested on: vancomycin resistant Enterococcus (VRE)
Serratia marcescens = tested on: Serratia marcescens
[2] = tested on: methicillin resistant Staphylococcus aureus (MRSA)

Measured: killing of microorganisms in the planktonic and biofilm state

O=C(O)CN(CCN(CC(=O)O)CC(=O)O)CC(=O)O [EDTA, ethylenediaminetetra-acetic acid]
effectively killed: all assays above
